{"source": "patent EP2161028B1", "about": "“Food product comprising dipeptides having antihypertensive properties” (Unilever N.V., priority 2008, dated 2011)", "note": "Peptide text beside a SMILES is read from it."}
{"parameters": "AUC: unit not given beside the values", "method": "The pH of simulated gastric fluid (SGF, 0.15 M NaCl, pH 2.5) was increased to 7.5 with […] (40 mM), and the following compounds were added to adjust the pH to 6.8 and simulate a duodenal-jejunal environment and create simulated small intestinal fluid (SIF): (i) a bile salt mixture containing equimolar quantities (0.125 M) of sodium taurocholate and glycodeoxycholic acid in NaHC03 (1 M), (ii) solutions of pancreatin from porcine pancreas (9 mg/mL) in water was prepared and added at approximately physiological ratios. The pH was adjusted to 6.8 with HCl (0.1 M). Peptides were dissolved in SIF at a final peptide concentration of 50 µM. Aliquots (1 mL) were prepared for sampling at different time points. Simulated intestinal digestion was carried out at 37°C, and aliquots (1 mL) were taken at 0, 5, 15, and 60 min after the start of the experiment. After peptide hydrolysis, digestive enzymes were inactivated at 95°C for 15 min and samples were cooled immediately on ice water and stored at -20°C until further analysis.\nQuantification of dipeptides derived from digestion were performed using a liquid chromatography multiple reaction ion monitoring-mass spectrometry (LC-MRM-MS) method as described van Platerink CJ, Janssen HG, Horsten R, Haverkamp J. Quantification of ACE inhibiting peptides in human plasma using high performance liquid chromatography-mass spectrometry. J Chromatogr B Analyt Technol Biomed Life Sci 2006,830:151-157. Peptide separation was performed on an Atlantis Hilic Silica column (2.1 x 150 mm, 3 µm particle size) and a Micromass Quattro-II (Milford MA, USA) with HP1100LC system (Hewlett-Packard, USA). The gradient started at 100% 0.1 % trifluoro acetic acid in Milli-Q water and ended at 70% 0.1% trifluoro acetic acid in acetonitrile. To support the ionization, a 70/30 mixture of propionic acid and propanol-2 was added postcolumn at a flow rate of […]. All analyses were conducted on an Alliance 2795 HPLC (Waters, Milford MA, USA) combined with a Quattro Premier triple quadrupole mass spectrometer from the same supplier.\nAn intestinal stability data set consisting of 228 dipeptides was generated based on the results from the simulated digestion experiments. The area under the time - peptide concentration curve was calculated and used for further analysis and modelling. An ACE inhibitory dipeptide database consisting of 228 dipeptides was constructed.\nFor each peptide the relative stability (in % of initial dipeptide concentration) was plotted against time and the area under the curve (AUC) was calculated."}
{"smiles": "N[C@@H](Cc1c[nH]c2ccccc12)C(=O)N[C@@H](CO)C(=O)O", "note": "[WS] (H-Trp-Ser-OH)", "intestinal stability (in words)": "high intestinal stability"}
{"smiles": "N[C@@H](Cc1c[nH]c2ccccc12)C(=O)N[C@@H](CC(=O)O)C(=O)O", "note": "[WD] (H-Trp-Asp-OH)", "intestinal stability (in words)": "high intestinal stability"}
{"smiles": "C[C@H](NC(=O)[C@@H](N)CS)C(=O)O", "note": "[CA] (H-Cys-Ala-OH)", "AUC": 0}
{"smiles": "C[C@@H](O)[C@H](NC(=O)[C@@H](N)CC(=O)O)C(=O)O", "note": "[DT] (H-Asp-Thr-OH)", "intestinal stability (in words)": "high intestinal stability"}
{"smiles": "C[C@@H](O)[C@H](NC(=O)[C@@H](N)Cc1c[nH]c2ccccc12)C(=O)O", "note": "[WT] (H-Trp-Thr-OH)", "intestinal stability (in words)": "high intestinal stability"}
{"smiles": "C[C@@H](O)[C@H](NC(=O)[C@@H](N)CS)C(=O)O", "note": "[CT] (H-Cys-Thr-OH)", "intestinal stability (in words)": "high intestinal stability"}
